# Earlier results, collected in patent US20070099940A1, “Pth agonists” (priority 2004, published 2007).
# Test system: fracture incidence
# Conditions: daily subcutaneous injection for up to 2 years, postmenopausal women
smiles,measurement,value
CC[C@H](C)[C@H](NC(=O)[C@H](CCC(=O)O)NC(=O)[C@H](CO)NC(=O)[C@@H](NC(=O)[C@@H](N)CO)C(C)C)C(=O)N[C@@H](CCC(N)=O)C(=O)N[C@@H](CC(C)C)C(=O)N[C@@H](CCSC)C(=O)N[C@@H](Cc1cnc[nH]1)C(=O)N[C@@H](CC(N)=O)C(=O)N[C@@H](CC(C)C)C(=O)NCC(=O)N[C@@H](CCCCN)C(=O)N[C@@H](Cc1cnc[nH]1)C(=O)N[C@@H](CC(C)C)C(=O)N[C@@H](CC(N)=O)C(=O)N[C@@H](CO)C(=O)N[C@@H](CCSC)C(=O)N[C@@H](CCC(=O)O)C(=O)N[C@@H](CCCN=C(N)N)C(=O)N[C@H](C(=O)N[C@@H](CCC(=O)O)C(=O)N[C@@H](Cc1c[nH]c2ccccc12)C(=O)N[C@@H](CC(C)C)C(=O)N[C@@H](CCCN=C(N)N)C(=O)N[C@@H](CCCCN)C(=O)N[C@@H](CCCCN)C(=O)N[C@@H](CC(C)C)C(=O)N[C@@H](CCC(N)=O)C(=O)N[C@@H](CC(=O)O)C(=O)N[C@H](C(=O)N[C@@H](Cc1cnc[nH]1)C(=O)N[C@@H](CC(N)=O)C(=O)N[C@@H](Cc1ccccc1)C(=O)O)C(C)C)C(C)C [PTH(1-34)],reduction of fracture incidence at non-vertebral sites,40%
same,reduction of fracture incidence at the spine,65%
